Test results as given in patent publication US20250186433A1, “ACSS2 INHIBITORS AND METHODS OF USE THEREOF” (EpiVario, Inc., priority 2017, published 2025).
pIC50: −log10 of the molar value.

Molecular target: T1, ACSL5 (Homo sapiens, UniProt Q9ULC5)
T1 construct: purchased Cusabio, China
T1 sequence (Q9ULC5 1-683): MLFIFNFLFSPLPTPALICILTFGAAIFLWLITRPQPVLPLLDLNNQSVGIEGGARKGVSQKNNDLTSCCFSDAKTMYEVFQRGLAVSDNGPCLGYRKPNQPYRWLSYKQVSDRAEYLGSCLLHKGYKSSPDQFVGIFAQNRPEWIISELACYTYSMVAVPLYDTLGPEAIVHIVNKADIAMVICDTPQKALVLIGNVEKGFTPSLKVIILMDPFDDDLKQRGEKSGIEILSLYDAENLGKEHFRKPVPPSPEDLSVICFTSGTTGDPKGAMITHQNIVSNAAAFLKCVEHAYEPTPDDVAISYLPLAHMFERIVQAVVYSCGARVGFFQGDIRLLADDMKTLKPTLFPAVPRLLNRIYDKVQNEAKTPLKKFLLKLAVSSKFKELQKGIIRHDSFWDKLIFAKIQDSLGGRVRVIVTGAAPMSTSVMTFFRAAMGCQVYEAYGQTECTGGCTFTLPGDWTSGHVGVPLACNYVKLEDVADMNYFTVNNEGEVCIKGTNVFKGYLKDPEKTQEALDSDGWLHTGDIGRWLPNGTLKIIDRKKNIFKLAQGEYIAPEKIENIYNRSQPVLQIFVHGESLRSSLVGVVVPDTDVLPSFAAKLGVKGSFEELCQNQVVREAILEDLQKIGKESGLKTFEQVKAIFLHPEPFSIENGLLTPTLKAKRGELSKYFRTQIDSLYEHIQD
Test: Acyl-CoA synthetases selectivity panel: ACSL5
Assay type: biochemical
Settings: human recombinant protein, substrate palmitate, AMP readout by HPLC; read-out: HPLC based activity assays IC50 (UM) ACSL5
Source text: The biochemical assays for testing the selectivity of the compounds according to this invention, were done using human recombinant proteins (Cusabio, China). The readout of the assays was AMP levels, the […] of the reactions, by HPLC method. The acyl substrates (Sigma-Aldrich) of the assays were as followed: ACSS1/ACSS2—Acetate, AACS-Acetoacetyl, ACSF2—Octanoate and ACSL5—Palmitate. The protein in this panel include ACSS1, the closest homolog of ACSS2, in addition to representative short/medium/long chain acyl-CoA syntatases.

COC(=O)c1cccc(N2N=C(C)C(C(=O)Nc3cccc(C(C)(F)F)c3)C2=O)c1 (stereo not shown) [compound 261, methyl 3-(4-((3-(1,1-difluoroethyl)phenyl)carbamoyl)-3-methyl-5-oxo-4,5-dihydro-1H-pyrazol-1-yl)benzoate]
pIC50: < 4.00
